SMILES strings stand for the structures.

The values that follow come from US20240182445A1 (ONO PHARMACEUTICAL CO., LTD., priority 2019, published 2024).

In the first test the target is T1, human TREK-1 (Homo sapiens, UniProt O95069).
T1 construct: expressed in transfected cells
T1 sequence (O95069 1-426): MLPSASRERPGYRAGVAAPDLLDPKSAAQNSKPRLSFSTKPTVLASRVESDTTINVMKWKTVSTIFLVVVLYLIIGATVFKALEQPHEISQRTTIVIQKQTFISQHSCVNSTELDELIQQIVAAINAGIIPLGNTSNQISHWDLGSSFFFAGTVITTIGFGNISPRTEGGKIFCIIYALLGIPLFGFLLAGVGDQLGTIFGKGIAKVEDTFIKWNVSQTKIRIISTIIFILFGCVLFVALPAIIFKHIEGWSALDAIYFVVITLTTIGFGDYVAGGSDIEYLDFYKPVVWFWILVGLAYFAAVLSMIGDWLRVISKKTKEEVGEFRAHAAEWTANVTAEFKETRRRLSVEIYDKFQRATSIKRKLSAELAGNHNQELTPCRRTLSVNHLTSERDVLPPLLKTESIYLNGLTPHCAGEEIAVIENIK
The test can be described thus: TREK-1 Thallium (Tl+) flux assay, Method 1. Type of test: cell-based. Particulars: TREK-1 Thallium (Tl+) flux assay, Method 1. In outline:
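Readout: Thallos fluorescence ratio, taken 25 s post-thallium relative to the pre-thallium baseline average, then converted to % inhibition. Cells were CHO-K1 stably expressing human TREK-1, dye-loaded and exposed to test compound (vehicle 0.3% DMSO) for 10 min prior to thallium stimulation.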
For orientation: IC50 means the concentration that gives 50% inhibition. Low readings indicate inhibition by little substance, high ones a need for much substance. Compound `Cc1cc(OCc2ccccc2)ccc1NC(=O)c1c(Cl)cnn1C1CC2(C1)CN(C(=O)C1CC1)C2` [Compound 406, N-(4-(benzyloxy)-2-methylphenyl)-4-chloro-1-(2-(cyclopropanecarbonyl)-2-azaspiro[3.3]heptan-6-yl)-1H-pyrazole-5-carboxamide] displayed an IC50 of 2540 nM.
Same read-out and setting: then `Cc1cc(OCc2ccccc2)ccc1NC(=O)c1c(Cl)cnn1CC1CN(C(=O)C2CC2C)CCO1` (stereo not shown) [Compound 417, N-(4-(benzyloxy)-2-methylphenyl)-4-chloro-1-((4-(2-methylcyclopropane-1-carbonyl)morpholin-2-yl)methyl)-1H-pyrazole-5-carboxamide], with 4160 nM.

The test is the same for the next values; noted with them: TREK-1 Thallium (Tl+) flux assay; no *^12 (Method 2) mark on these rows.
In the case of `CC1(Cn2ncc(Cl)c2C(=O)Nc2ncc(C#Cc3ccccc3)cc2F)CCCO1` (stereo not shown) [Compound 279, 4-chloro-N-(3-fluoro-5-(phenylethynyl)pyridin-2-yl)-1-((2-methyltetrahydrofuran-2-yl)methyl)-1H-pyrazole-5-carboxamide], the IC50 is 490 nM.
Turning to `Cc1cc(C#Cc2ccc(F)cc2)cnc1NC(=O)c1c(Cl)cnn1C1CC2(CCN(C(=O)C3COCCO3)C2)C1` (stereo not shown) [Compound 310, 4-chloro-1-[6-(1,4-dioxane-2-carbonyl)-6-azaspiro[3.4]octan-2-yl]-N-{5-[(4-fluorophenyl)ethynyl]-3-methylpyridin-2-yl}-1H-pyrazole-5-carboxamide], the IC50 was determined as 580 nM.
On the same count and under the same terms, then `Cc1cc(C#Cc2ccc(F)cc2)cnc1NC(=O)c1c(Cl)cnn1C[C@H]1CCCN(C(=O)OC(C)(C)C)C1` [Compound 368, tert-butyl (S)-3-((4-chloro-5-((5-((4-fluorophenyl)ethynyl)-3-methylpyridin-2-yl)carbamoyl)-1H-pyrazol-1-yl)methyl)piperidine-1-carboxylate], with 940 nM.
Consider `O=C(Nc1ncc(C#Cc2ccccc2)cc1F)c1c(Cl)cnn1C[C@@H]1C[C@H]2CC[C@@H]1O2` (racemic) [Compound 319, 4-chloro-N-[3-fluoro-5-(phenylethynyl)pyridin-2-yl]-1-{[(1S,2S,4R)-7-oxabicyclo[2.2.1]heptan-2-yl]methyl}-1H-pyrazole-5-carboxamide and 4-chloro-N-[3-fluoro-5-{[(1R,2R,4S)-7-oxabicyclo[2.2.1]heptan-2-yl)methyl}-1H-pyrazole-5-carboxamide], for which 620 nM corresponded to half-maximal inhibition (IC50).

The test is the same for the next values; noted with them: TREK-1 Thallium (Tl+) flux assay; values without footnote *12 are Method 1.
For `CC(=O)N1CC[C@H](n2ncc(Cl)c2C(=O)Nc2ncc(C#Cc3ccccc3)cc2C)C[C@@H]1C` (single isomer, unassigned) [Compound 31, 1-[(2S,4S)-1-acetyl-2-methylpiperidin-4-yl]-4-chloro-N-[3-methyl-5-(phenylethynyl)pyridin-2-yl]-1H-pyrazole-5-carboxamide or 1-[(2R,4R)-1-acetyl-2-methylpiperidin-4-yl]-4-chloro-N-[3-methyl-5-(phenylethynyl)pyridin-2-yl]-1H-pyrazole-5-carboxamide], 100 nM corresponded to half-maximal inhibition (IC50).
As to `CC(=O)N1CCC(Cn2ncc(Cl)c2C(=O)Nc2ncc(C#Cc3cccs3)cc2C)CC1` [Compound 123, 1-((1-acetylpiperidin-4-yl)methyl)-4-chloro-N-(3-methyl-5-(thiophen-2-ylethynyl)pyridin-2-yl)-1H-pyrazole-5-carboxamide], the IC50 was determined as 210 nM.
In turn, `Cc1cc(C#Cc2cccs2)cnc1NC(=O)c1c(Cl)cnn1C1CC2(C1)CN(C(=O)C1CC1)C2` [Compound 36, 4-chloro-1-(2-(cyclopropanecarbonyl)-2-azaspiro[3.3]heptan-6-yl)-N-(3-methyl-5-(thiophen-2-ylethynyl)pyridin-2-yl)-1H-pyrazole 5-carboxamide] gave an IC50 of 110 nM.
Same read-out and setting: then `CC(=O)NC1CCCC(n2ncc(Cl)c2C(=O)Nc2ncc(C#Cc3ccccc3)cc2C)C1` (stereo not shown) [Compound 107, 1-(3-acetamidocyclohexyl)-4-chloro-N-(3-methyl-5-(phenylethynyl)pyridin-2-yl)-1H-pyrazole-5-carboxamide hydrofluoride], with 190 nM.
